Laboratory results taken from paper PMC8948292, “Combining PEGylated mito-atovaquone with MCT and Krebs cycle redox inhibitors as a potential strategy to abrogate tumor cell proliferation” (Scientific Reports, 2022).

Columns and labels:
[1] = test system: MiaPaCa-2 cells; experiment: Cell proliferation (cell confluence), IncuCyte Live-Cell Analysis System; format: cell-based, human; settings: for Cell confluence (% of control): MiaPaCa-2 cells, control ~90% confluence
Procedure, shortened: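 MiaPaCa-2 cells in DMEM with 10% FBS, plated at 1,000 cells/well in triplicate and adhered overnight, then treated with Mito-PEG-ATO analogs. Confluence imaged label-free over several days, increase in percent confluence serving as proliferation surrogate.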

[2] = test system: MiaPaCa-2 cells; experiment: Basal extracellular acidification rate (ECAR) in intact cells; format: cell-based, human; settings: 24 h treatment
Description: (§1) Mitochondrial oxygen consumption was measured using the Seahorse XF-96 Extracellular Flux Analyzer (Agilent, North Billerica, MA)[3],[33],[67],[68]. To determine the intact cell mitochondrial function of MiaPaCa-2 cells in response to Mito-PEG-ATO analogs, we used the bioenergetic function assay previously described[2],[3]. […] From these measurements, indices of mitochondrial function were determined as previously described[2],[3]. For mitochondrial complex activities assays, after cells were treated with Mito-PEG-ATO analogs for 24 h, the OCR-based assessment of mitochondrial complex activities was carried out on acutely permeabilized cells in the presence of different mitochondrial substrates, i.e., pyruvate/malate for complex I and duroquinol for complex III[3],[32],[34],[69]. Rotenone, malonate, and antimycin A (Sigma-Aldrich, St. Louis, MO) were used as specific inhibitors of mitochondrial complexes I, II, and III, respectively. Briefly, cells that were intact after treatments were immediately permeabilized using the Seahorse XF Plasma Membrane Permeabilizer (Agilent). The mitochondrial complex I-induced OCR was assayed in mannitol and sucrose buffer[69] containing 10 mM pyruvate and 1.5 mM malate (substrates for complex I) and 10 mM malonate (which inhibits complex II activities). […] The IC50 values were determined as previously reported. […]

[3] = test system: mitochondrial complex I (U87MG cells); experiment: Complex I-dependent oxygen consumption, Seahorse XF-96; format: cell-based, human
Description: as §1

[4] = molecular target: T1, mitochondrial complex III (U87MG cells) (Homo sapiens, UniProt P00156); experiment: Complex III-dependent oxygen consumption, Seahorse XF-96; format: cell-based
T1 construct: endogenous in cells; host or cells: U87MG (ATCC HTB-14)
Description: as §1

[5] = test system: mitochondrial respiration (OCR) in intact MiaPaCa-2 cells; experiment: Intact cell mitochondrial respiration (basal OCR), Seahorse XF-96; format: cell-based, human
Procedure, shortened: (§2)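 MiaPaCa-2 cells were treated 24 h with Mito-PEG-ATO analogs, and OCR was read on a Seahorse XF-96; basal respiration was taken in intact cells. For complex I, permeabilized cells received 10 mM pyruvate, 1.5 mM malate and 10 mM malonate; for complex III, 0.5 mM duroquinol, 1 µM rotenone and 10 mM malonate, both in mannitol/sucrose buffer. IC50 values were derived from the OCR data.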

[6] = test system: mitochondrial respiration (OCR) in intact U87MG cells; experiment: as above; format: cell-based, human; settings: 24 h treatment
Description: Mitochondrial oxygen consumption was measured using the Seahorse XF-96 Extracellular Flux Analyzer (Agilent, North Billerica, MA)[3],[33],[67],[68]. To determine the intact cell mitochondrial function of MiaPaCa-2 cells in response to Mito-PEG-ATO analogs, we used the bioenergetic function assay previously described[2],[3]. […] From these measurements, indices of mitochondrial function were determined as previously described[2],[3]. For mitochondrial complex activities assays, after cells were treated with Mito-PEG-ATO analogs for 24 h, the OCR-based assessment of mitochondrial complex activities was carried out on acutely permeabilized cells in the presence of different mitochondrial substrates, i.e., pyruvate/malate for complex I and duroquinol for complex III[3],[32],[34],[69]. Rotenone, malonate, and antimycin A (Sigma-Aldrich, St. Louis, MO) were used as specific inhibitors of mitochondrial complexes I, II, and III, respectively. […] The IC50 values were determined as previously reported.
Figure S8. […] (b) After eight baseline OCR measurements, the response to mitochondrial modulators (oligomycin, dinitrophenol, and rotenone/antimycin A as described in the Methods section) were recorded. The last three stable baseline OCR reading before oligomycin injection was plotted against the concentration of Mito-PEG4-ATO (red open box). […]

[7] = test system: U87MG cells; experiment: Basal extracellular acidification rate (ECAR) in intact cells; format: cell-based, human
[8] = molecular target: mitochondrial complex III (MiaPaCa-2 cells) (Homo sapiens, UniProt P00156); experiment: Complex III-dependent oxygen consumption in permeabilized cells, Seahorse XF-96; format: cell-based
Procedure, shortened: as §2

Chain of mitochondrial complex III (MiaPaCa-2 cells) (P00156 whole entry): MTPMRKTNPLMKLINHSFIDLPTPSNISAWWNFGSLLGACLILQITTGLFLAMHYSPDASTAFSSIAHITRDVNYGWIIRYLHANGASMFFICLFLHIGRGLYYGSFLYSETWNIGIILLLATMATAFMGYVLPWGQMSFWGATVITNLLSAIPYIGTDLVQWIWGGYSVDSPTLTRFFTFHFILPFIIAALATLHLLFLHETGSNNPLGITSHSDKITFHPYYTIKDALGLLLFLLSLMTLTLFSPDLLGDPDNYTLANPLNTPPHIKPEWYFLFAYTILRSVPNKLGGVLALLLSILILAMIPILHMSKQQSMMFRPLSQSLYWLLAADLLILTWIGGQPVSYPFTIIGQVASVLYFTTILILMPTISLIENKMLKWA
Chain of mitochondrial complex III (MiaPaCa-2 cells) (P47985 whole entry partner): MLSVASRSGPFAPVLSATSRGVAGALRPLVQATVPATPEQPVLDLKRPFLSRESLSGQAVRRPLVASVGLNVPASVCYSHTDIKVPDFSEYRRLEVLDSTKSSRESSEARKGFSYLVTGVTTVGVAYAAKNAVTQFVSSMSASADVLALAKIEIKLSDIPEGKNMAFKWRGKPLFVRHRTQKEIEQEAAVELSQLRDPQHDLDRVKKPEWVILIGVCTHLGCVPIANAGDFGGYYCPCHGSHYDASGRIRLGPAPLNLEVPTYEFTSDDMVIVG
T1 sequence (P00156 whole entry): as the sequence (P00156 whole entry) above
T1 sequence (P47985 whole entry partner): as the sequence (P47985 whole entry partner) above

With `O=C1C(OCCOCCOCCOCC[P+](c2ccccc2)(c2ccccc2)c2ccccc2)=C([C@H]2CC[C@H](c3ccc(Cl)cc3)CC2)C(=O)c2ccccc21.[Br-]` [Mito-PEG4-ATO, [2-(2-(2-(2-((3-(trans-4-(4-chlorophenyl)cyclohexyl)-1,4-dioxo-1,4-dihydronaphthalen-2-yl)oxy)ethoxy)ethoxy)ethoxy)ethyl]triphenylphosphonium bromide] the IC50 ([1]; Homo sapiens, MIA PaCa-2, read-out: IC50, inhibition of cell proliferation) was 140 nM, the “Cell confluence (% of control)” value ([1]; 0.005 µM) was 100.53 % of control and the “Cell confluence (% of control)” value ([1]; 0.02 µM) was 101.08 % of control. For the same compound, the “Cell confluence (% of control)” value ([1]; 0.05 µM) was 100.72 % of control, the “Cell confluence (% of control)” value ([1]; 0.08 µM) was 98.94 % of control and the “Cell confluence (% of control)” value ([1]; 0.16 µM) was 29.68 % of control. For the same compound, the “Cell confluence (% of control)” value ([1]; 0.32 µM) was 3.32 % of control, the “Cell confluence (% of control)” value ([1]; 0.48 µM) was 3.11 % of control and the “Cell confluence (% of control)” value ([1]; 0.8 µM) was 3.18 % of control. For the same compound, the “Cell confluence (% of control)” value ([1]; 1.6 µM) was 2.81 % of control, the “Cell confluence (% of control)” value ([1]; 4.8 µM) was 2.52 % of control and the ECAR [2] was “stimulated ECAR”. The “Complex I-induced oxygen consumption” value [3] was “inhibited”, the “Complex III-induced oxygen consumption” value [4] was “inhibited” and the “OCR (pmol/min/µg protein)” value ([5]; 0.003 µM, 24 h treatment, intact MiaPaCa-2 cells, baseline OCR, mean, n=4) was 20.44 pmol/min/µg protein. The “OCR (basal, intact cell mitochondrial respiration)” value ([5]; 0.01 µM, 24 h treatment, intact MiaPaCa-2 cells, mean, n=4) was 17.79 pmol/min/µg protein, the “OCR (basal, intact cell mitochondrial respiration)” value ([5]; 0.03 µM, 24 h treatment, intact MiaPaCa-2 cells, mean, n=4) was 17.72 pmol/min/µg protein and the “OCR (basal, intact cell mitochondrial respiration)” value ([5]; 0.05 µM, 24 h treatment, intact MiaPaCa-2 cells, mean, n=4) was 16.82 pmol/min/µg protein. The “OCR (basal, intact cell mitochondrial respiration)” value ([5]; 0.1 µM, 24 h treatment, intact MiaPaCa-2 cells, mean, n=4) was 13.38 pmol/min/µg protein, the “OCR (basal, intact cell mitochondrial respiration)” value ([5]; 0.2 µM, 24 h treatment, intact MiaPaCa-2 cells, mean, n=4) was 9.15 pmol/min/µg protein and the “OCR (basal, intact cell mitochondrial respiration)” value ([5]; 0.3 µM, 24 h treatment, intact MiaPaCa-2 cells, mean, n=4) was 6.10 pmol/min/µg protein. For the same compound, the “OCR (basal, intact cell mitochondrial respiration)” value ([5]; 0.5 µM, 24 h treatment, intact MiaPaCa-2 cells, mean, n=4) was 3.29 pmol/min/µg protein, the “OCR (basal, intact cell mitochondrial respiration)” value ([5]; 1 µM, 24 h treatment, intact MiaPaCa-2 cells, mean, n=4) was 1.41 pmol/min/µg protein and the “OCR (basal, intact cell mitochondrial respiration)” value ([5]; 3 µM, 24 h treatment, intact MiaPaCa-2 cells, mean, n=4) was 0.43 pmol/min/µg protein. For the same compound, the “OCR (basal, intact cell mitochondrial respiration)” value ([5]; 10 µM, 24 h treatment, intact MiaPaCa-2 cells, mean, n=4) was 0.42 pmol/min/µg protein, the IC50 ([5]; Homo sapiens, MIA PaCa-2, 24 h, read-out: IC50, inhibition of basal OCR in intact cells) was 260 nM and the “OCR in intact cells” value [6] was “suppressed”. The ECAR [7] was “stimulated ECAR”, the “Complex III activity (OCR, % of control)” value ([8]; 0.02 µM) was 98.8 % of control and the “Complex III activity (OCR, % of control)” value ([8]; 0.05 µM) was 96.0 % of control. The “Complex III activity (OCR, % of control)” value ([8]; 0.08 µM) was 99.9 % of control, the “Complex III activity (OCR, % of control)” value ([8]; 0.16 µM) was 96.5 % of control and the “Complex III activity (OCR, % of control)” value ([8]; 0.32 µM) was 90.1 % of control. For the same compound, the “Complex III activity (OCR, % of control)” value ([8]; 0.5 µM) was 92.4 % of control, the “Complex III activity (OCR, % of control)” value ([8]; 0.8 µM) was 76.5 % of control and the “Complex III activity (OCR, % of control)” value ([8]; 1.6 µM) was 51.9 % of control. For the same compound, the “Complex III activity (OCR, % of control)” value ([8]; 5 µM) was 24.8 % of control and the IC50 ([8]; MiaPaCa-2 cells, 24 h treatment, antimycin A-inhibitable OCR, read-out: IC50, complex III-induced oxygen consumption (Complex III activity)) was 1700 nM.
